Laboratory results taken from publication PMC4849550 (ACS chemical biology, 2016).

Molecular target: Csd4 (Helicobacter pylori, UniProt B5ZAD9)
Experiment: crystal structure at […] Å
Format: biochemical

Ki: 1500 ± 300 nM
SMILES: CC(=O)N[C@H](CCP(=O)(O)CC(CCC[C@@H](N)C(=O)O)C(=O)O)C(=O)O (mixture of isomers) [compound 1, inhibitor 1]
